Measured values taken from patent US11981686B2, “Urea compound having substituent” (DAIICHI SANKYO COMPANY, LIMITED, priority 2019, dated 2024).

Target: SIRT6 enzyme (Homo sapiens, UniProt Q8N6T7)
Test: Measurement of deacetylation activity (SIRT6, AlphaLISA, H3K9(Ac) peptide)
Format: biochemical
Settings: SIRT6 25 ng/mL, H3K9(Ac) biotin peptide 2 nM, NAD 10 μM, room temperature 30 minutes, duplicate
How it was run: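 Activation read as EC150, the concentration giving 150% activity relative to enzyme/no-enzyme DMSO controls, via variable-slope fit. Deacetylation of 2 nM biotinylated H3K9(Ac) peptide with 10 μM NAD+ by 25 ng/mL SIRT6 ran 30 min at room temperature, pH 8.0, then AlphaLISA detection of unmodified H3K9.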

Sequence of SIRT6 enzyme (Q8N6T7 whole entry, species assumed): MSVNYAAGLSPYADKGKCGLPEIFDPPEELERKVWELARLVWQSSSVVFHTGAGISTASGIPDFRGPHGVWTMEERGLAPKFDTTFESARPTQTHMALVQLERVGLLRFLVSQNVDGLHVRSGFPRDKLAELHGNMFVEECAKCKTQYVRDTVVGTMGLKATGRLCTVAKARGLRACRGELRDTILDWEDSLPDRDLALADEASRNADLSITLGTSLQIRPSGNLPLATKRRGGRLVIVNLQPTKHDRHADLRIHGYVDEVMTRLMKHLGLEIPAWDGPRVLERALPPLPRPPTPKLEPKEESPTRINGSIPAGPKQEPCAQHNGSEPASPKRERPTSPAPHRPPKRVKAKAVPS

SMILES	EC150 (the concentration of the compound showing a relative enzyme activity of 150%)
CCOc1cccc(-c2cnc(N3[C@@H]4COC[C@H]3c3sc(NC(=O)N[C@H](C)CO)nc3C4)o2)n1 [Example 68, N-{(4S,8S)-10-[5-(6-ethoxypyridin-2-yl)-1,3-oxazol-2-yl]-4,7,8,9-tetrahydro-5H-4,8-epiminooxocino[5,4-d][1,3]thiazol-2-yl}-N′-[(2R)-1-hydroxypropan-2-yl]urea]	1 μm
O=C(Nc1nc2c(s1)CN(c1nccc(C3CCCOC3)n1)CC2)N[C@H]1C[C@H](O)C1 (stereo partly shown) [Example 192, N-[(1r,3r)-3-hydroxycyclobutyl]-N′-{5-[4-(oxan-3-yl)pyrimidin-2-yl]-4,5,6,7-tetrahydro[1,3]thiazolo[5,4-c]pyridin-2-yl}urea]	0.44 μm
CNC(=O)Nc1nc2c(s1)[C@@H]1COC[C@H](C2)N1c1nnc(-c2cccc(OC(F)F)c2)o1 [Example 22, N-[(4S,8S)-10-{5-[3-(difluoromethoxy)phenyl]-1,3,4-oxadiazol-2-yl}-4,7,8,9-tetrahydro-5H-4,8-epiminooxocino[5,4-d][1,3]thiazol-2-yl]-N′-methylurea]	1.3 μm
C[C@H](O)CNC(=O)Nc1nc2c(s1)[C@@H]1COC[C@H](C2)N1c1ncc(-c2cccc(OC(F)F)n2)o1 [Example 174, N-[(4S,8S)-10-{5-[6-(difluoromethoxy)pyridin-2-yl]-1,3-oxazol-2-yl}-4,7,8,9-tetrahydro-5H-4,8-epiminooxocino[5,4-d][1,3]thiazol-2-yl]-N′-[(2S)-2-hydroxypropyl]urea]	0.74 μm
CNC(=O)Nc1nc2c(s1)[C@@H]1COC[C@H](C2)N1c1nnc(-c2cccc(OC)c2)o1 [Example 120, N-{(4S,8S)-10-[5-(3-methoxyphenyl)-1,3,4-oxadiazol-2-yl]-4,7,8,9-tetrahydro-5H-4,8-epiminooxocino[5,4-d][1,3]thiazol-2-yl}-N′-methylurea]	2.4 μm
COc1cccc(-c2cnc(N3[C@@H]4COC[C@H]3c3sc(NC(=O)N[C@H](C)CO)nc3C4)o2)n1 [Example 67, N-[(2R)-1-hydroxypropan-2-yl]-N′-{(4S,8S)-10-[5-(6-methoxypyridin-2-yl)-1,3-oxazol-2-yl]-4,7,8,9-tetrahydro-5H-4,8-epiminooxocino[5,4-d][1,3]thiazol-2-yl}urea]	0.75 μm
COc1cccc(-c2cc(N3[C@@H]4COC[C@H]3c3sc(NC(=O)NC5CCOCC5)nc3C4)no2)n1 [Example 62, N-{(4S,8S)-10-[5-(6-methoxypyridin-2-yl)-1,2-oxazol-3-yl]-4,7,8,9-tetrahydro-5H-4,8-epiminooxocino[5,4-d][1,3]thiazol-2-yl}-N′-oxan-4-ylurea]	2.6 μm
C[C@H](CO)NC(=O)Nc1nc2c(s1)[C@@H]1COC[C@H](C2)N1c1nc2cc(C(F)F)ccc2o1 [Example 56, N-{(4S,8S)-10-[5-(difluoromethyl)-1,3-benzoxazol-2-yl]-4,7,8,9-tetrahydro-5H-4,8-epiminooxocino[5,4-d][1,3]thiazol-2-yl}-N′-[(2R)-1-hydroxypropan-2-yl]urea]	0.19 μm
CC(C)(O)CNC(=O)Nc1nc2c(s1)CN(c1nc(C3CCC(F)(F)CC3)no1)CC2 [Example 88, N-{5-[3-(4,4-difluorocyclohexyl)-1,2,4-oxadiazol-5-yl]-4,5,6,7-tetrahydro[1,3]thiazolo[5,4-c]pyridin-2-yl}-N′-(2-hydroxy-2-methylpropyl)urea]	1.1 μm
C[C@H](CO)NC(=O)Nc1nc2c(s1)CN(c1nccc(C3CCCOC3)n1)CC2 (stereo partly drawn) [Example 191, N-[(2R)-1-hydroxypropan-2-yl]-N′-{5-[4-(oxan-3-yl)pyrimidin-2-yl]-4,5,6,7-tetrahydro[1,3]thiazolo[5,4-c]pyridin-2-yl}urea]	1.2 μm
CNC(=O)Nc1nc2c(s1)C1CCC(C2)N1c1cc(-c2ccc(F)cc2)on1 (stereo not shown) [Example 11, N-{9-[5-(4-fluorophenyl)-1,2-oxazol-3-yl]-5,6,7,8-tetrahydro-4H-5,8-epiminocyclohepta[d][1,3]thiazol-2-yl}-N′-methylurea]	4.3 μm
Cn1cnc(CNC(=O)Nc2nc3c(s2)CN(c2nc(C4CCC(F)(F)CC4)no2)CC3)n1 [Example 106, N-{5-[3-(4,4-difluorocyclohexyl)-1,2,4-oxadiazol-5-yl]-4,5,6,7-tetrahydro[1,3]thiazolo[5,4-c]pyridin-2-yl}-N′-[(1-methyl-1H-1,2,4-triazol-3-yl)methyl]urea]	2.4 μm
O=C(Nc1nc2c(s1)[C@@H]1COC[C@H](C2)N1c1cc(-c2ccc(F)cc2)on1)N[C@@H]1CCOC1 [Example 155]	0.51 μm
O=C(Nc1nc2c(s1)[C@@H]1COC[C@H](C2)N1c1ncc(-c2cccc(OC(F)F)n2)o1)NC1CCS(=O)(=O)CC1 [Example 180, N-[(4S,8S)-10-{5-[6-(difluoromethoxy)pyridin-2-yl]-1,3-oxazol-2-yl}-4,7,8,9-tetrahydro-5H-4,8-epiminooxocino[5,4-d][1,3]thiazol-2-yl]-N′-(1,1-dioxo-1λ^6 thian-4-yl)urea]	0.14 μm
CCOc1cccc(-c2cnc(N3[C@@H]4COC[C@H]3c3sc(NC(=O)NCC(C)(C)O)nc3C4)o2)n1 [Example 79, N-{(4S,8S)-10-[5-(6-ethoxypyridin-2-yl)-1,3-oxazol-2-yl]-4,7,8,9-tetrahydro-5H-4,8-epiminooxocino[5,4-d][1,3]thiazol-2-yl}-N′-(2-hydroxy-2-methylpropyl)urea]	1.2 μm
COCCCNC(=O)Nc1nc2c(s1)CN(c1nc(C3CCC(F)(F)CC3)no1)CC2 [Example 27, N-{5-[3-(4,4-difluorocyclohexyl)-1,2,4-oxadiazol-5-yl]-4,5,6,7-tetrahydro[1,3]thiazolo[5,4-c]pyridin-2-yl}-N′-(3-methoxypropyl)urea]	2.1 μm
O=C(NCCOCCO)Nc1nc2c(s1)CN(c1nc(C3CCC(F)(F)CC3)no1)CC2 [Example 34, N-{5-[3-(4,4-difluorocyclohexyl)-1,2,4-oxadiazol-5-yl]-4,5,6,7-tetrahydro[1,3]thiazolo[5,4-c]pyridin-2-yl}-N′-[2-(2-hydroxyethoxy)ethyl]urea]	1.9 μm
O=C(NC[C@H]1COCCO1)Nc1nc2c(s1)[C@@H]1COC[C@H](C2)N1c1nc(-c2ccc(F)cc2)no1 [Example 29, N-{[(2S)-1,4-dioxan-2-yl]methyl}-N′-{(4S,8S)-10-[3-(4-fluorophenyl)-1,2,4-oxadiazol-5-yl]-4,7,8,9-tetrahydro-5H-4,8-epiminooxocino[5,4-d][1,3]thiazol-2-yl}urea]	0.69 μm
O=C(Nc1nc2c(s1)[C@@H]1COC[C@H](C2)N1c1ncc(-c2cccc(OC(F)F)c2)o1)N[C@H]1C[C@H](O)C1 [Example 167, N-[(4S,8S)-10-{5-[3-(difluoromethoxy)phenyl]-1,3-oxazol-2-yl}-4,7,8,9-tetrahydro-5H-4,8-epiminooxocino[5,4-d][1,3]thiazol-2-yl]-N′-[(1r,3S)-3-hydroxycyclobutyl]urea]	0.43 μm
CC(=O)N1CC2Cc3nc(NC(=O)N[C@@H]4CCOC4)sc3C(C1)N2c1nc(-c2ccc(F)cc2)no1 (stereo partly drawn) [Example 140, N-{6-acetyl-10-[3-(4-fluorophenyl)-1,2,4-oxadiazol-5-yl]-4,5,6,7,8,9-hexahydro-4,8-epimino[1,3]thiazolo[5,4-d]azocin-2-yl}-N′-[(3R)-oxolan-3-yl]urea]	0.16 μm
O=C(Nc1nc2c(s1)[C@@H]1COC[C@H](C2)N1c1nc(-c2ccc(F)cc2)no1)N[C@H]1C[C@H](O)C1 [Example 86, N-{(4S,8S)-10-[3-(4-fluorophenyl)-1,2,4-oxadiazol-5-yl]-4,7,8,9-tetrahydro-5H-4,8-epiminooxocino[5,4-d][1,3]thiazol-2-yl}-N′-[(1r,3S)-3-hydroxycyclobutyl]urea]	0.25 μm
CC(C)(O)CNC(=O)Nc1nc2c(s1)[C@@H]1COC[C@H](C2)N1c1ncc(-c2cccc(OC(F)F)c2)o1 [Example 172, N-[(4S,8S)-10-{5-[3-(difluoromethoxy)phenyl]-1,3-oxazol-2-yl}-4,7,8,9-tetrahydro-5H-4,8-epiminooxocino[5,4-d][1,3]thiazol-2-yl]-N′-(2-hydroxy-2-methylpropyl)urea]	0.83 μm
Cn1ccc(CNC(=O)Nc2nc3c(s2)[C@@H]2COC[C@H](C3)N2c2ncc(-c3cccc(OC(F)F)n3)o2)cc1=O [Example 178, N-[(4S,8S)-10-{5-[6-(difluoromethoxy)pyridin-2-yl]-1,3-oxazol-2-yl}-4,7,8,9-tetrahydro-5H-4,8-epiminooxocino[5,4-d][1,3]thiazol-2-yl]-N′-[(1-methyl-2-oxo-1,2-dihydropyridin-4-yl)methyl]urea]	0.1 μm
O=C(NCC1(O)CC1)Nc1nc2c(s1)CN(c1nc(C3CCC(F)(F)CC3)no1)CC2 [Example 104, N-{5-[3-(4,4-difluorocyclohexyl)-1,2,4-oxadiazol-5-yl]-4,5,6,7-tetrahydro[1,3]thiazolo[5,4-c]pyridin-2-yl}-N′-[(1-hydroxycyclopropyl)methyl]urea]	1.6 μm
COCCNC(=O)Nc1nc2c(s1)CN(c1nc(C3CC(F)(F)CCO3)no1)CC2 (stereo not shown) [Example 98, N-{5-[3-(4,4-difluorooxan-2-yl)-1,2,4-oxadiazol-5-yl]-4,5,6,7-tetrahydro[1,3]thiazolo[5,4-c]pyridin-2-yl}-N′-(2-methoxyethyl)urea]	2.6 μm
